Assay results taken from ChEMBL document CHEMBL1201862, “PubChem BioAssay data set” (2004).
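Five concentrations, 48 hours, 96-well plates. GI50 = concentration required for 50% inhibition of growth.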 Activity calls are given as the source filed them. Cut-off read from the data, not from the text of the source: active = GI50 up to about 1.1 µM and inactive = higher.

Experiments:
Assay in all cases: inhibition of tumour cell growth, NCI panel, 48 h
786-0 = system: 786-0
A498 = system: A498
CCRF-CEM = system: CCRF-CEM
HOP-62 = system: HOP-62
HT-29 = system: HT-29
LOX IMVI = system: LOX IMVI
Malme-3M = system: Malme-3M
NCI-H226 = system: NCI-H226
NCI-H23 = system: NCI-H23
OVCAR-5 = system: OVCAR-5
OVCAR-8 = system: OVCAR-8
SF-539 = system: SF-539
SK-MEL-28 = system: SK-MEL-28
SW-620 = system: SW-620
U-251 = system: U-251
UO-31 = system: UO-31
DU-145 = system: DU-145
MCF7 = system: MCF7
T47D = system: T47D

## CC(=O)Nc1ccc(-c2nnc(SCC(=O)Nc3cccc(Cl)c3)o2)cc1
786-0
  GI50: 6.49 µM (inactive)
A498
  GI50: 16.3 µM (inactive)
CCRF-CEM
  GI50: 6.18 µM (inactive)
HOP-62
  GI50: 19.7 µM (inactive)
HT-29
  GI50: 17.2 µM (inactive)
LOX IMVI
  GI50: 10.3 µM (inactive)
Malme-3M
  GI50: 12.4 µM (inactive)
NCI-H226
  GI50: 17.7 µM (inactive)
NCI-H23
  GI50: 9.79 µM (inactive)
OVCAR-5
  GI50: 20.7 µM (inactive)
OVCAR-8
  GI50: 33.2 µM (inactive)
SF-539
  GI50: 20.1 µM (inactive)
SK-MEL-28
  GI50: 17.9 µM (inactive)
SW-620
  GI50: 13.5 µM (inactive)
U-251
  GI50: 9.84 µM (inactive)
UO-31
  GI50: 27.7 µM (inactive)

## O=C(CCC(=O)CC(O)(C(F)(F)F)C(F)(F)F)CC(O)(C(F)(F)F)C(F)(F)F
786-0
  GI50: 46.1 µM (inactive)
A498
  GI50: 0.151 µM (active)
CCRF-CEM
  GI50: 42.1 µM (inactive)
DU-145
  GI50: 53.1 µM (inactive)
HOP-62
  GI50: 52.5 µM (inactive)
HT-29
  GI50: 29.7 µM (inactive)
MCF7
  GI50: 37.8 µM (inactive)
Malme-3M
  GI50: 42.1 µM (inactive)
NCI-H226
  GI50: 18.8 µM (inactive)
NCI-H23
  GI50: 30.8 µM (inactive)
OVCAR-5
  GI50: > 100 µM (inactive)
OVCAR-8
  GI50: 42.4 µM (inactive)
SF-539
  GI50: 67.6 µM (inactive)
SK-MEL-28
  GI50: > 100 µM (inactive)
SW-620
  GI50: 63.5 µM (inactive)
T47D
  GI50: 29.2 µM (inactive)
U-251
  GI50: 65 µM (inactive)
UO-31
  GI50: 23.5 µM (inactive)

## CC(=O)N1CCN(C=S)CC1
786-0
  GI50: > 100 µM (inactive)
A498
  GI50: > 100 µM (inactive)
CCRF-CEM
  GI50: > 100 µM (inactive)
HOP-62
  GI50: > 100 µM (inactive)
HT-29
  GI50: > 100 µM (inactive)
LOX IMVI
  GI50: > 100 µM (inactive)
Malme-3M
  GI50: > 100 µM (inactive)
NCI-H226
  GI50: > 100 µM (inactive)
NCI-H23
  GI50: > 100 µM (inactive)
OVCAR-5
  GI50: > 100 µM (inactive)
OVCAR-8
  GI50: > 100 µM (inactive)
SF-539
  GI50: > 100 µM (inactive)
SK-MEL-28
  GI50: > 100 µM (inactive)
SW-620
  GI50: > 100 µM (inactive)
U-251
  GI50: > 100 µM (inactive)
UO-31
  GI50: > 100 µM (inactive)

## CC(=O)NNc1nc(C)c(C(=O)NNC(=O)C(=O)Nc2c(C)cccc2C)s1
786-0
  GI50: 50.8 µM (inactive)
A498
  GI50: > 100 µM (inactive)
CCRF-CEM
  GI50: 32 µM (inactive)
HOP-62
  GI50: > 100 µM (inactive)
HT-29
  GI50: 36.6 µM (inactive)
LOX IMVI
  GI50: 18.3 µM (inactive)
Malme-3M
  GI50: 53.1 µM (inactive)
NCI-H226
  GI50: > 100 µM (inactive)
NCI-H23
  GI50: 24.7 µM (inactive)
OVCAR-5
  GI50: 81.3 µM (inactive)
OVCAR-8
  GI50: 26.2 µM (inactive)
SF-539
  GI50: 60.5 µM (inactive)
SK-MEL-28
  GI50: 76.6 µM (inactive)
SW-620
  GI50: 42.9 µM (inactive)
U-251
  GI50: 43.9 µM (inactive)
UO-31
  GI50: 53.8 µM (inactive)

## Cc1ccc(-c2cn3c(nc4ccccc43)c(/C=C/c3ccco3)n2)cc1
786-0
  GI50: 48 µM (inactive)
A498
  GI50: > 100 µM (inactive)
DU-145
  GI50: > 100 µM (inactive)
HOP-62
  GI50: > 100 µM (inactive)
HT-29
  GI50: > 100 µM (inactive)
LOX IMVI
  GI50: 69.2 µM (inactive)
MCF7
  GI50: 29.6 µM (inactive)
Malme-3M
  GI50: 65.6 µM (inactive)
NCI-H226
  GI50: > 100 µM (inactive)
NCI-H23
  GI50: 37 µM (inactive)
OVCAR-5
  GI50: > 100 µM (inactive)
SF-539
  GI50: > 100 µM (inactive)
SK-MEL-28
  GI50: 58.1 µM (inactive)
SW-620
  GI50: 47.6 µM (inactive)
T47D
  GI50: 71.4 µM (inactive)
U-251
  GI50: 60.5 µM (inactive)
UO-31
  GI50: > 100 µM (inactive)

## O=C1CC(O)C=C1Nc1ccc(Cl)cc1 (centres undefined)
786-0
  GI50: 58.2 µM (inactive)
A498
  GI50: 13.8 µM (inactive)
CCRF-CEM
  GI50: 11.4 µM (inactive)
HOP-62
  GI50: 79.6 µM (inactive)
HT-29
  GI50: 13.7 µM (inactive)
LOX IMVI
  GI50: 25.4 µM (inactive)
Malme-3M
  GI50: 59.8 µM (inactive)
NCI-H226
  GI50: > 100 µM (inactive)
NCI-H23
  GI50: 29 µM (inactive)
OVCAR-5
  GI50: 90.8 µM (inactive)
OVCAR-8
  GI50: 49.2 µM (inactive)
SF-539
  GI50: 61.7 µM (inactive)
SK-MEL-28
  GI50: 56.2 µM (inactive)
SW-620
  GI50: 34.1 µM (inactive)
U-251
  GI50: 49.3 µM (inactive)
UO-31
  GI50: 31.3 µM (inactive)

## c1ccc2c(c1)N=C(c1cccc3ccccc13)CC(c1cccc3ccccc13)S2 (centres undefined)
786-0
  GI50: 3.8 µM (inactive)
A498
  GI50: 7.94 µM (inactive)
CCRF-CEM
  GI50: 2.05 µM (inactive)
HOP-62
  GI50: 9.14 µM (inactive)
HT-29
  GI50: 3.33 µM (inactive)
LOX IMVI
  GI50: 3.48 µM (inactive)
Malme-3M
  GI50: 14.9 µM (inactive)
NCI-H226
  GI50: 9.84 µM (inactive)
NCI-H23
  GI50: 3.57 µM (inactive)
OVCAR-5
  GI50: 6.9 µM (inactive)
OVCAR-8
  GI50: 2.96 µM (inactive)
SF-539
  GI50: 4.92 µM (inactive)
SK-MEL-28
  GI50: 7.36 µM (inactive)
SW-620
  GI50: 2.56 µM (inactive)
U-251
  GI50: 2.63 µM (inactive)
UO-31
  GI50: 11.2 µM (inactive)

## O=C1NC2C3CC(OCc4ccccc4)(OCc4ccccc4)C2OC3O1 (centres undefined)
786-0
  GI50: > 50 µM (inactive)
A498
  GI50: > 50 µM (inactive)
CCRF-CEM
  GI50: > 50 µM (inactive)
HOP-62
  GI50: > 50 µM (inactive)
HT-29
  GI50: > 50 µM (inactive)
LOX IMVI
  GI50: > 50 µM (inactive)
Malme-3M
  GI50: > 50 µM (inactive)
NCI-H226
  GI50: > 50 µM (inactive)
NCI-H23
  GI50: > 50 µM (inactive)
OVCAR-5
  GI50: > 50 µM (inactive)
SF-539
  GI50: > 50 µM (inactive)
SK-MEL-28
  GI50: > 50 µM (inactive)
SW-620
  GI50: > 50 µM (inactive)
UO-31
  GI50: > 50 µM (inactive)

## O=C(O)CCC(NC(=O)c1ccc(Nc2nc3ccccc3nc2C(=O)O)cc1)C(=O)O (centres undefined)
786-0
  GI50: > 100 µM (inactive)
CCRF-CEM
  GI50: > 100 µM (inactive)
DU-145
  GI50: > 100 µM (inactive)
HOP-62
  GI50: > 100 µM (inactive)
HT-29
  GI50: > 100 µM (inactive)
MCF7
  GI50: > 100 µM (inactive)
Malme-3M
  GI50: > 100 µM (inactive)
NCI-H23
  GI50: > 100 µM (inactive)
OVCAR-5
  GI50: > 100 µM (inactive)
OVCAR-8
  GI50: > 100 µM (inactive)
SF-539
  GI50: > 100 µM (inactive)
SK-MEL-28
  GI50: > 100 µM (inactive)
T47D
  GI50: > 100 µM (inactive)
U-251
  GI50: > 100 µM (inactive)
UO-31
  GI50: > 100 µM (inactive)
